Assays:
[1] = test system: IL-8 promoter (red light-emitting luciferase) in three-dimensional culture of HaCaT; conditions: 20 μM, 100 μM and 200 μM, loaded from bottom and top surfaces, 0 to 72 hours, FIG. 15
Text: (§1) The thus obtained HaCaT was used to obtain a three-dimensional culture by the same method as in Example 1. The three-dimensional culture was a three-dimensional culture in which a Cellbed was used as a plate-like substrate as in Example 1, to which a HaCaT culture layered product was adhered, and the superficial layer of the three-dimensional culture was the stratum corneum.
A cell culture insert (Falcon Culture Insert #353095) comprising a clear, colorless, PET membrane with a 0.4 μm pore size bottom for 24 wells was inserted into the wells of a 24-well plate for cell culture with black walls and a colorless bottom, the three-dimensional culture obtained in Example 3 was placed in the bottom of the culture insert with the cells on top. […] 0.8 mL of this medium was placed on the outside of the culture insert, and then 30 μL was loaded from the top of the three-dimensional culture. […]
Plastic paraffin film was sprinkled around this well plate and the luminescence was measured for 0 to 72 hours with a real-time luminescence monitoring system for cultured cells, Kronos HT (manufactured by ATTO Corporation). The bioluminescence intensity of each luciferase was measured on these three-dimensional cultures as in Example 5.

[2] = test system: IL-8 promoter (red light-emitting luciferase) in three-dimensional culture of HaCaT; experiment: Skin sensitization evaluation: test substance loaded from the top of the three-dimensional HaCaT culture, multicolor luciferase luminescence (IL-8 promoter red / UBC promoter green); conditions: range of from 200 µM to 2 mM in KGM medium, 30 μL loaded only from the top, up to 72 hours, FIG. 10
Text: as §1
(§2) A cell culture insert (Falcon Culture Insert #353095) comprising a clear, colorless, PET membrane with a 0.4 μm pore size bottom for 24 wells was inserted into the wells of a 24-well plate for cell culture with black walls and a colorless bottom, the three-dimensional culture was placed in the bottom of the culture insert with the cells on top, and 0.8 mL of KGM-gold containing 0.2 mM luciferin potassium salt was placed in the well outside the culture insert. For sensitization evaluation, a test substance was loaded from the top of the three-dimensional culture inside the insert. […] As a solvent control, 30 μL of KGM medium was added from the top of the three-dimensional culture. Plastic paraffin film was sprinkled around this well plate and the luminescence was measured for 0 to 72 hours with a real-time luminescence monitoring system for cultured cells, Kronos HT (manufactured by ATTO Corporation). Measurements were taken every minute for 10 seconds for each color and continued for 0 to 72 hours. […]

[3] = test system: IL-8 promoter (red light-emitting luciferase) in three-dimensional culture of HaCaT
Text: as §1, §2

Oc1ccc(O)cc1 [HQ, hydroquinone]
bioluminescence intensity ratio of red light-emitting luciferase (IL-8 promoter) to green light-emitting luciferase (ubiquitin C promoter) [1]: increased in a concentration-dependent manner | relative bioluminescence intensity of red light-emitting luciferase (IL-8 promoter) to green light-emitting luciferase (ubiquitin C promoter) [2]: concentration-dependent increase

CCCCN(CCCC)c1ccccc1 [DA, dibutylaniline]
emission intensity, concentration dependence [3]: concentration dependence was observed
